The data set in a line: acid dissociation constant (pKa) by conventional titration.

Like-named read-outs stand apart in the source and are kept apart here.

What is called pKa is the pH at which an ionisable group is half protonated. Lower therefore signals a group that gives up its proton readily. `CN1C(C)(C)CC(OC(=O)CC(C(=O)OC2CC(C)(C)N(C)C(C)(C)C2)C(CC(=O)OC2CC(C)(C)N(C)C(C)(C)C2)C(=O)OC2CC(C)(C)N(C)C(C)(C)C2)CC1(C)C` [Example D-2, tetrakis(1,2,2,6,6-pentamethyl-4-piperidyl) 1,2,3,4-butanetetracarboxylate] showed a pKa of 8.9.
For `CC1(C)CC(OC(=O)CCCCCCCCC(=O)OC2CC(C)(C)NC(C)(C)C2)CC(C)(C)N1` [Example D-3, Bis(2,2,6,6-tetramethyl-4-piperidyl) sebacate], the pKa came out at 9.
In turn, `CCCCCCCCON1C(C)(C)CC(OC(=O)CCCCCCCCC(=O)OC2CC(C)(C)N(OCCCCCCCC)C(C)(C)C2)CC1(C)C` [Example D-4, Bis(1-octyloxy-2,2,6,6-tetramethylpiperidin-4-yl) sebacate] displayed a pKa of 4.4.
As to “Condensate of N,N-bis(3-aminopropyl)ethylenediamine. 2,4-bis[N-butyl-N-(1,2,2,6,6-pentamethyl-4-pi peridyl)amino]-6-chloro-1,3,5-triazine [Example D-5]”, the pKa (acid dissociation constant of hindered amine light stabilizer) turned out to be 9.2.

Source of the values: patent publication US20100190878A1, “POLYOLEFIN RESIN COMPOSITION AND FOAM MOLDED ARTICLE” (SUMITOMO CHEMICAL COMPANY, LIMITED, priority 2008, published 2010).
